Experimental data taken from article PMC4841536, “Characterization of the Anti-HCV Activities of the New Cyclophilin Inhibitor STG-175” (PLoS ONE, 2016).
pEC50, pIC50: −log10 of the molar value.

Tests used:
[1] = tested on: IL-2 promoter activation in Jurkat T-cell line; test: In vitro assay for immunosuppression: IL-2 promoter activation in engineered Jurkat T-cell line (betagalactosidase); format: cell-based
Method: IL-2 promoter activation upon T-cell stimulation was determined using an engineered Jurkat T-cell line, which expresses betagalactosidase when exposed to chemical non-specific factors like […] (PMA) and phytohematogglutinin (PHA) as described previously. DMSO or STG-175 were added together with PMA (10 ng/mL) to 1 million of Jurkat cells (triplicates). Betagalactosidase activity in cell lysates was quantified by fluorescence (460 nm) after 24 h.
Fig 1 Anti-PPIase and immunosuppressive activities of STG-175. A. Structures of cyclophilin inhibitors. Inhibition of CypA (B) and CypD (C) isomerase activities were assessed using the α-chymotrypsin-coupled assay. Each test compound was prepared at 10 concentrations (0.05–1000 nM). All solutions were equilibrated, and reactions conducted at 5°C. Reactions were initiated by mixing 95 μL reaction mix with 5 μL of the peptide to be cleaved and measuring OD405 nm at 6-sec intervals for 6 min. Data were fitted with Graphpad Prism 6.0 to obtain first-order rate constants. Enzyme catalyzed rate constants were calculated by subtracting the rate constant from uncatalyzed reactions (no CypA/D), and catalytic rate constants plotted as a function of inhibitor concentration to obtain IC50s. […] D. IL-2 promoter activation upon T-cell stimulation was determined using an engineered Jurkat T-cell line, which expresses betagalactosidase. Jurkat cells (1 million) were activated with PMA (10 ng/mL). […] The Y-axis values are expressed as percentage of activity. Data expressed as EC50s are representative of two independent experiments.
The formation of this trimolecular complex inhibits T cell proliferation by blocking the signaling pathway leading to IL-2 production upon T-cell stimulation. The immunosuppressive activity of STG-175 was evaluated by inhibition of the IL-2 production in Jurkat cells.

[2] = tested on: NS3i-resistant R155Q/A156T NS3 Con1 GT1b replicon; test: Electroporated Con1 RNA replication in Huh7.5.1 cells (RT-qPCR), R155Q/A156T NS3; format: cell-based; conditions: Hepatitis C virus, Huh-7.5.1, 192 h, read-out: EC50 R155Q/A156T NS3
Text: The GT1b subgenomic firefly luciferase reporter replicon pFK-I389/NS3–3 was provided by R. Bartenschlager. The GT1B subgenomic NS3, NS5A and NS5B mutants were created via homologous recombination using the In-Fusion HD Cloning kit (Clontech) as we described previously. […] The in vitro transcription of wild-type and mutant Con1 RNA was accomplished using the T7 MEGAscript kit (Ambion) by following the manufacturer’s instructions. In vitro-transcribed RNAs were introduced into Huh7.5.1 cells by electroporation. Trypsinized cells were washed twice and resuspended in phosphate-buffered saline (PBS) (calcium-free and magnesium-free) at 1x 10^7 cells per ml. Ten micrograms of RNA for each mutant was mixed with 0.4 mL of cells in a 4-mm cuvette, and a Bio-Rad Gene Pulser system was used to deliver a single pulse at 0.27 kV, 100 ohms, and 960 μF. […] RNA transfection efficiency and HCV subgenomic replication were assessed by reverse transcription-quantitative PCR (RT-qPCR) and presented as genome equivalents (GE) per microgram of total RNA as described previously. We measured by RT-qPCR the replication of wild-type, STG-175-, NS5Ai-, NS3i- and NS5Bi-resistant mutants in the presence of increasing concentrations of SGT-175, daclatasvir, telaprevir, boceprevir and sofosbuvir over a period of 8 days.
Fig 5 Cross-resistance analyses. […] Data are expressed as log of GE/μg of total RNA. […]

SMILES: CC=CCC(C)C(O)C1C(=O)NC(CC)C(=O)N(C)C(CSCCCCO)C(=O)N(C)C(CC(C)(C)O)C(=O)NC(C(C)C)C(=O)N(C)C(CC(C)C)C(=O)NC(C)C(=O)NC(C)C(=O)N(C)C(CC(C)C)C(=O)N(C)C(CC(C)C)C(=O)N(C)C(C(C)C)C(=O)N1C (stereo not drawn) [STG-175]
- pIC50 ([1]; Homo sapiens, Jurkat, 24 h, read-out: IC50, inhibition of IL-2 production (immunosuppressive activity)): 6.80
- times less immunosuppressive activity than CsA ([1]; Jurkat IL-2): approximately 1000 times
- pEC50 [2]: 7.87
